Measured values published in US4281654A, “Drug delivery system for controlled ocular therapy” (ALZA Corporation, priority 1980, dated 1981).
≈ marks a conversion by molar mass, not a printed value. Counter-ions that a name gives are not always drawn.

Columns and labels:
[1] = Solubility in distilled water; assay type: physicochemical
[2] = Osmotic pressure of the solute; assay type: physicochemical
Text: The osmotic pressure, ATM, of the above solutes can be measured in a commercially available osmometer that measures the vapor pressure difference between pure water and the solution containing a solute to be analyzed, and according to standard thermodynamic principles, the vapor pressure ratio is converted into osmotic pressure difference. An osmometer that can be used for the present measurements is identified as Model 302B Vapor Pressure Osmometer, manufactured by Hewlett Packard Company, Avondale, Pa.

[3] = test system: open-angle glaucoma, intraocular pressure; assay: Clinical study of mean intraocular pressure (IOP) in patients diagnosed as having open-angle glaucoma; assay type: in vivo, patients (human); settings: 12 patients
Text: The present invention provides an ocular therapeutic system for administering a therapeutically effective amount of a beta-adrenergic blocking drug, and a therapeutically effective amount of a parasympathomimetic drug concurrently from a single ocular dosage form that can lead to synergestic clinical results. The clinical study that follows presents the results obtained by the simultaneous administration to the eye of a beta-adrenergic blocking drug and a parasympathomimetic drug to the eyes of patients.
In a clinical study using 12 patients diagnosed as having open-angle glaucoma, the mean intraocular pressures, IOP's, were measured with each patient under the following therapies: (a) S-(-)-1-(tert-butylamino)-3-[(4-morpholino-1,2,5-thiadiazol-3-yl)oxy-2-propanol maleate, timolol maleate, 0.25% ophthalmic solution instilled as drop alone; (b) timolol maleate, 0.50% ophthalmic solution instilled as drop alone; (c) (3s-cis)-3-ethyldihydro-4-[(1-methyl-1H-imidazol-5-yl) methyl]-2(3H)-furanone, pilocarpine, administered at a rate of 40 micrograms per hour from an ocular therapeutic system placed in the conjunctival sac; (d) therapy comprising 0.25 timolol maleate instilled with concomitant release of 40 micrograms of pilocarpine from an ocular system; and (e) therapy comprising 0.50 timolol maleate instilled with concomitant release of 40 mcg (micrograms) of pilocarpine from an ocular system. In the table, the results of (a) and (c) administered alone are additive, while the results are synergistic for (d) wherein the two drugs were administered concomitantly to the eye. In the table, the results of (b) and (c) administered alone are additive, where the results are synergistic for (e) wherein the two drugs were administered concomitantly to the eye.

Q: With `COCCc1ccc(OCC(O)CNC(C)C)cc1` (racemic) [(±)-1-[4-(2-methoxyethyl)-phenoxy]-3-[(1-methylethyl)amino]-2-propanol tratrate] as the molecule, how does the solubility ([1]; 25° C) read?
A: Its solubility is 860 mg/mL (≈ 3220 mM).

Q: And the osmotic pressure [2]?
A: The osmotic pressure was 210 atm.

Q: Which “Mean IOP Reduction” value ([3]; (c) pilocarpine 40 mcg/hr alone from ocular therapeutic system in conjunctival sac) does the source give for `CC[C@@H]1C(=O)OC[C@@H]1Cc1cncn1C` (relative stereo) [pilocarpine, (3s-cis)-3-ethyldihydro-4-[(1-methyl-1H-imidazol-5-yl)methyl]-2(3H)-furanone] here?
A: The value was 1.6 mm.

Q: With `CC[C@@H]1C(=O)OC[C@@H]1Cc1cncn1C` [(3S-cis)-ethyldihydro-4-[(1-methyl-1H-imidazol-5-yl)methyl]-2(3H)-furanonenitrate] as the molecule, how does the solubility ([1]; water) read?
A: The solubility was 270 mg/mL (≈ 1300 mM).

Q: What about the osmotic pressure [2] of the same molecule?
A: The osmotic pressure was 37 atm.

Q: Which results are given for `CC(C)(C)NC[C@H](O)COc1nsnc1N1CCOCC1` [timolol, S-(-)-1-(tert-butylamino)-3-[(4-morpholino-1,2,5-thiadiazol-3-yl)oxy-2-propanol maleate]?
A: Mean IOP Reduction ([3]; (a) timolol maleate 0.25% ophthalmic solution instilled as drop alone): 1.4 mm; Mean IOP Reduction ([3]; (b) timolol maleate 0.50% ophthalmic solution instilled as drop alone): 2.4 mm
